# Measured values: publication PMC5597121, “The human bitter taste receptor T2R38 is broadly tuned for bacterial compounds” (PLoS ONE, 2017)
# Substitutions are numbered along the chain they refer to. Values joined by “and” are separate entries in the source; they are usually repeats but may differ in a detail not shown here. Equal values may be shown once. Read-outs that look alike come from different tables or passages of the source.
# Tests used:
# T2R38 = target: T1, T2R38 (Homo sapiens, UniProt P59533, A49P/I296V); assay: Single cell calcium imaging, Peakrapid cells (Gα16gustducin44) transiently transfected with T2R38; type: cell-based; details: for response of T2R38 PAV transfected cells (S7_fig raw data): individual values of experiments 1-5; for Emax: read-out: Emax (% of positive control)
# T1 construct: leader: first 45 amino acids of rat somatostatin receptor subtype 3 (SSTR3) (N); expressed in transfected cells; host or cells: Peakrapid cells (HEK293 derivative, ATCC CRL-2828) stably expressing Galpha16gustducin44, co-transfected with human RTP4
# T1 sequence (P59533 1-333 A49P/I296V): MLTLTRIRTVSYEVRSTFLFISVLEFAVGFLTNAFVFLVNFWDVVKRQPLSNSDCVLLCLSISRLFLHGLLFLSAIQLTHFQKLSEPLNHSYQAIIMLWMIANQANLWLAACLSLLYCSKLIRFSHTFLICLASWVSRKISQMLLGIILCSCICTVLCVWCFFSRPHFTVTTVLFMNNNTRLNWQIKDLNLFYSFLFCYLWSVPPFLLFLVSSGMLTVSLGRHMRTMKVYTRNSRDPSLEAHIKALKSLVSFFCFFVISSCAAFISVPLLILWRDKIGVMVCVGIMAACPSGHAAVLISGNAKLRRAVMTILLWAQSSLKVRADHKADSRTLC
# From the text: (§1) The coding sequences of either the functional (PAV, GenBank accession number AY258597.1) and non-functional (AVI, GenBank accession number AF494231.1) were amplified from human genomic DNA by polymerase chain reaction.
# These coding sequences were cloned in a pEFIB backbone vector in translational fusion with the coding sequence of a leader sequence corresponding to the 45 first amino acids of the rat somatostatin receptor subtype 3 [20]. The constructs were verified by sequencing. The coding sequence of RTP4 (Genbank accession number AY562238.1) was amplified from human spleen cDNA and cloned a pCI backbone vector.
# The Gα16gustducin44 sequence was generated by swapping the last 132 nucleotides of the G α16 with the corresponding terminal sequence of the Gα-gustducin [21] and was cloned in a pIRES-Puro plasmid. This vector was transfected in the Peakrapid cell line (ATCC reference: CRL-2828™; purchased from LGC Standards SARL, Molsheim, FRANCE), HEK293 cell line derivative, cultured in EMEM culture medium (reference BE12-136F; Lonza, Vervier, BELGIUM) supplemented with 10% of foetal bovine serum (Sigma-Aldrich, Bornem, Belgium) and 1 μg/ml of Puromycin to allow the selection of recombinant cell populations. Cell clones expressing the Gα16gustducin44 were selected and the clone presenting the best functional response of T2R38 to phenylthicarbamide was used for the study (see below).
# (§2) The Peakrapid cell line expressing stably a chimeric Gα16gustducin44 G protein [21] was used. 40 000 cells were seeded in each well of a black/clear poly-D-lysine cellware pre-coated 96-well plate (Biocoat®, Becton-Dickinson, Erembodegem, Belgium) and transiently transfected with 50 ng of plasmid DNA containing the receptor sequence or not (empty vector) and with 50 ng of chaperone protein RTP4 per well. Forty hours after transfection, cells were incubated with the calcium-sensitive dye Fluo4 (Life Technologies, Oregon, USA) solubilized at 10 μg/ml in a buffer containing EMEM (150 mM NaCl, 5 mM KCl, 2 mM CaCl2, 1.2 mM MgCl2, 10 mM glucose), 10 mM HEPES, 0.01% (v/v) Pluronic F127, 0.1% (w/v) bovine serum albumin. After 1 h incubation at 37°C, cells were rinsed twice with the same buffer without Fluo4 and left in 50 μl buffer (prior ligand injection). Measurement were performed on a platform based on a motorized Axiobserver Z1 fluorescence microscope piloted by a Axiovision software (Zeiss, Jena, Germany) as described previously. For each selected well, images were taken 1 per second, during 30 seconds. 50 μl of the buffer containing the ligand twice concentrated was injected on the 2nd second of the time lapse record.
# After time lapse record, the number of responding cells in each injected well was determined using ImageJ 1.34 (Rasband, W.S., ImageJ, National Institutes of Health, Bethesda, Maryland, USA, http://rsb.info.nih.gov/ij/1997-2004), and expressed as the percentage of the surface of a microscope field covered by activated cells with respect to the total surface of the field covered by confluent cells. Automated determination of the surface occupied by responding cells is easier to perform than a cell counting. The resulting percentage of positive surface provided a convenient estimation of the percentage of responding cells, as observed by comparing the percentage of positive surface and percentage of responsive cells determined by direct counting, in the same experiment. In agreement with the literature, the percentage of responding cells was proportional to the agonist concentration. During experiment in each plate, at least 2 wells were tested with phenylthiocarbamide (PTC) at 0.1 mM, which is one of the best characterized agonist of T2R38 in the literature. The activation of T2R38 by PTC allows normalization of the result of other tested molecules. The results were thus expressed as the percentage of PTC activation. […]
# [1] = test system: mock transfected cells (empty vector); assay: Single cell calcium imaging, control: mock transfected (empty vector) Peakrapid cells; type: cell-based, human
# Experimental: as §2
# (§3) After time lapse record, the number of responding cells in each injected well was determined using ImageJ 1.34 (Rasband, W.S., ImageJ, National Institutes of Health, Bethesda, Maryland, USA, http://rsb.info.nih.gov/ij/1997-2004), and expressed as the percentage of the surface of a microscope field covered by activated cells with respect to the total surface of the field covered by confluent cells. Automated determination of the surface occupied by responding cells is easier to perform than a cell counting. The resulting percentage of positive surface provided a convenient estimation of the percentage of responding cells, as observed by comparing the percentage of positive surface and percentage of responsive cells determined by direct counting, in the same experiment. In agreement with the literature, the percentage of responding cells was proportional to the agonist concentration. During experiment in each plate, at least 2 wells were tested with phenylthiocarbamide (PTC) at 0.1 mM, which is one of the best characterized agonist of T2R38 in the literature. The activation of T2R38 by PTC allows normalization of the result of other tested molecules. The results were thus expressed as the percentage of PTC activation. In scaling calcium imaging assays using this latter receptor, concentration-responses curves were performed and data were fitted to a four parameter logistic equation: y=min+ (max− min)/1+10 ^(logEC50−x)nH . Min and max are the minimum and the maximum values of the percentage of cell-activated surface respectively, y is the percentage of cell-activated surface at the x concentration and nH is the Hill coefficient.
# T2R38 AVI = target: T2, T2R38 AVI (Homo sapiens, UniProt P59533, A262V); assay: Single cell calcium imaging, control: cells transfected with nonfunctional allele (AVI) of T2R38; type: cell-based; details: T2R38 AVI, individual values of experiments 1-5
# T2 construct: leader: first 45 amino acids of rat somatostatin receptor subtype 3 (SSTR3) (N); expressed in transfected cells; host or cells: Peakrapid cells (HEK293 derivative, ATCC CRL-2828) stably expressing Galpha16gustducin44, co-transfected with human RTP4
# T2 sequence (P59533 1-333 A262V): T1 sequence (P59533 1-333 A49P/I296V) with P49A, A262V, V296I
# Experimental: as §1, §2, §3
# [2] = 2 butanone 0.0003, log10[ ] -3.52288
# [3] = 2 butanone 0.005, log10[ ] -2.30
# [4] = concentration-response curve, read-out: EC50
# [5] = given in the concentration-response curve
# [6] = percentage of the response elicited by 0.1 mM PTC
# [7] = 2 méthyl propanal 0.000398107, log10[ ] -3.4
# [8] = 2 méthyl propanal 0.00251189, log10[ ] -2.6
# [9] = 2 méthyl propanal 0.0158489, log10[ ] -1.8
smiles,measurement,setting,value
CCC(C)=O [2-butanone],agonist activity on T2R38 (in words),T2R38,able to specifically trigger this receptor
same,percentage of surface covered by activated cells,T2R38; [2],0.29% and 0.34% and 0.44% and 0.21% and 0.00% and 0.15%
same,percentage of surface covered by activated cells,"T2R38; 2 butanone 0.001, log10[ ] -3",0.13% and 1.98% and 3.16% and 3.22% and 0.15% and 0.22%
same,percentage of surface covered by activated cells,T2R38; [3],0.54% and 0.83% and 7.88% and 6.11% and 2.08% and 3.12%
same,response of T2R38 PAV transfected cells (S7_fig raw data),T2R38,17% and 13% and 2.7% and 11% and 15% and 12% and 7% and 6%
same,EC50,T2R38; [4],11 mM
same,logEC50,T2R38; [5],-1.94
same,Emax (% of positive control),T2R38; [6],48 % of positive control
same,percentage of surface covered by activated cells,[1]; [2],0.39% and 0.10% and 0.28% and 0.31% and 0.23% and 0.40%
same,percentage of surface covered by activated cells,"[1]; 2 butanone 0.001, log10[ ] -3",0.15% and 0.21% and 0.35% and 0.12% and 1.02% and 0.24%
same,percentage of surface covered by activated cells,[1]; [3],0.20% and 0.26% and 0.34% and 0.21% and 0.24% and 0.71%
same,percentage of surface covered by activated cells,"[1]; 2 butanone 0.015, log10[ ] -1.82",0.00% and 0.0352% and 0.31% and 0.18% and 0.33% and 0.26%
same,percentage of surface covered by activated cells,"[1]; 2 butanone 0.03, log10[ ] -1.52",0.0659% and 0.02% and 0.27% and 0.40% and 0.08% and 0.25%
same,percentage of surface covered by activated cells,"[1]; 2 butanone 0.08, log10[ ] -1.09691",0.25% and 0.75% and 3.48% and 1.23% and 0.22% and 1.04%
same,response of T2R38 AVI transfected cells (S7_fig raw data),T2R38 AVI,0.268% and 0.426% and 0.699% and 0.605% and 0.163% and 0.0184% and 0.394% and 1%
CC(C)C=O [2-methylpropanal],agonist activity on T2R38 (in words),T2R38,able to specifically trigger this receptor
same,percentage of surface covered by activated cells,T2R38; [7],0.29% and 0.95% and 0.86% and 0.39% and 1.39% and 0.60% and 1.13% and 1.16%
same,percentage of surface covered by activated cells,T2R38; [8],1.62% and 0.54% and 2.22% and 1.87% and 1.50% and 1.18% and 5.46% and 4.93%
same,percentage of surface covered by activated cells,T2R38; [9],36.19% and 28.82% and 26.57% and 24.12% and 23.76% and 32.56% and 40.19% and 33.93%
same,response of T2R38 PAV transfected cells (S7_fig raw data),T2R38; listed as 2 méthyl propanal,27% and 16% and 28% and 14% (2×) and 8.51%
same,EC50,T2R38; [4],11 mM
same,logEC50,T2R38; [5],-1.97
same,Emax (% of positive control),T2R38; [6],163 % of positive control
same,percentage of surface covered by activated cells,[1]; [7],0.75% and 0.87% and 0.24% and 0.23% and 0.25% and 0.37% and 0.61%
same,percentage of surface covered by activated cells,[1]; [8],0.28% and 0.65% and 0.25% and 0.23% and 1.49% and 1.18% and 0.31% and 0.37%
same,percentage of surface covered by activated cells,"[1]; 2 méthyl propanal 0.00398107, log10[ ] -2.4",0.33% and 0.26% and 0.12% and 0.41% and 0.13% and 0.42% and 0.48% and 0.87%
same,percentage of surface covered by activated cells,"[1]; 2 méthyl propanal 0.00630957, log10[ ] -2.2",0.35% and 0.63% and 0.24% and 0.06% and 0.59% and 0.25% and 0.34% and 0.85%
same,percentage of surface covered by activated cells,"[1]; 2 méthyl propanal 0.01, log10[ ] -2",0.73% and 0.27% and 0.89% and 1.38% and 0.42% and 1.05% and 1.19% and 0.79%
same,percentage of surface covered by activated cells,[1]; [9],1.86% and 0.33% and 2.42% and 3.28% and 1.11% and 1.32% and 3.65% and 5.14%
same,response of T2R38 AVI transfected cells (S7_fig raw data),T2R38 AVI; listed as 2 méthyl propanal,1% (2×) and 2% and 1.41% and 0.831% and 1.15%
CCCC(C)=O [2-pentanone],agonist activity on T2R38 (in words),T2R38,able to specifically trigger this receptor
same,response of T2R38 PAV transfected cells (S7_fig raw data),T2R38,9% and 12% and 15% and 13% (2×) and 7.41% and 5.71% and 14%
same,EC50,T2R38; [4],4 mM
same,EC50,"T2R38; given in the concentration-response curve, read-out: logEC50 (converted)",4.17 mM
same,Emax,T2R38; [6],45%
same,percentage of surface covered by activated cells,"[1]; 2 pentanone 0.0001, log10[ ] -4",0.19% and 0.34% and 0.32% and 0.16% and 0.35% and 0.41%
same,percentage of surface covered by activated cells,"[1]; 2 pentanone 0.001, log10[ ] -3",0.04% and 1.06% and 0.17% and 0.14% and 0.64% and 0.06%
same,percentage of surface covered by activated cells,"[1]; 2 pentanone 0.003, log10[ ] -2.52288",0.03% and 0.41% and 0.31% and 0.06% and 0.22% and 0.074%
same,percentage of surface covered by activated cells,"[1]; 2 pentanone 0.006, log10[ ] -2.22185",0.27% and 1.25% and 0.19% and 0.29% and 0.62% and 0.33%
same,percentage of surface covered by activated cells,"[1]; 2 pentanone 0.02, log10[ ] -1.69897",0.18% and 0.24% and 0.54% and 1.13% and 0.15% and 0.52%
same,response of T2R38 AVI transfected cells (S7_fig raw data),T2R38 AVI,0.427% and 0.477% and 0.476% and 0.193% and 0.0823% and 0.141% and 0.285% and 0.393%
CSSC [diméthyldisulfide],response of T2R38 PAV transfected cells (S7_fig raw data),T2R38,18% and 12% (2×) and 2.83% and 2.52% and 3.72% and 7.4% and 9% and 2% and 0.585%
same,response of T2R38 AVI transfected cells (S7_fig raw data),T2R38 AVI,0.145% and 0.026% and 1.18% and 0.463% and 1.36% and 1.27% and 1.33% and 1.1% and 0.0987% and 0.185%
O=C1CCCO1 [γ-butyrolactone],agonist activity on T2R38 (in words),T2R38,able to specifically trigger this receptor
same,EC50,"T2R38; EC50, concentration-response curve",12 mM
same,response of T2R38 PAV transfected cells (S7_fig raw data),T2R38; listed as g-butyrolactone,18% and 20% and 13% and 12% (2×) and 14% and 11% (2×) and 9.52% and 15%
same,EC50,"T2R38; logEC50, printed in the picture of the concentration-response curve",12 mM
same,Emax,T2R38,33%
same,response of T2R38 AVI transfected cells (S7_fig raw data),T2R38 AVI; listed as g-butyrolactone,0.0283% and 0.0479% and 0.129% and 0.148% and 0.16% and 0.208% and 0.188% and 0.394% and 0.0477% and 0.222%
